Legend:
[1] = molecular target: Serine/threonine-protein kinase VRK2 (Homo sapiens) (UniProt Q86Y07)
[2] = molecular target: Mitogen-activated protein kinase 6 (Homo sapiens) (UniProt Q16659)
[3] = molecular target: Ribosomal protein S6 kinase alpha-3 (Homo sapiens) (UniProt P51812)
[4] = molecular target: Casein kinase I isoform gamma-3 (Homo sapiens) (UniProt Q9Y6M4)
[5] = molecular target: Serine/threonine-protein kinase 26 (Homo sapiens) (UniProt Q9P289)
[6] = molecular target: T1, Serine/threonine-protein kinase VRK3 (Homo sapiens) (UniProt Q8IV63)
T1 sequence (whole entry): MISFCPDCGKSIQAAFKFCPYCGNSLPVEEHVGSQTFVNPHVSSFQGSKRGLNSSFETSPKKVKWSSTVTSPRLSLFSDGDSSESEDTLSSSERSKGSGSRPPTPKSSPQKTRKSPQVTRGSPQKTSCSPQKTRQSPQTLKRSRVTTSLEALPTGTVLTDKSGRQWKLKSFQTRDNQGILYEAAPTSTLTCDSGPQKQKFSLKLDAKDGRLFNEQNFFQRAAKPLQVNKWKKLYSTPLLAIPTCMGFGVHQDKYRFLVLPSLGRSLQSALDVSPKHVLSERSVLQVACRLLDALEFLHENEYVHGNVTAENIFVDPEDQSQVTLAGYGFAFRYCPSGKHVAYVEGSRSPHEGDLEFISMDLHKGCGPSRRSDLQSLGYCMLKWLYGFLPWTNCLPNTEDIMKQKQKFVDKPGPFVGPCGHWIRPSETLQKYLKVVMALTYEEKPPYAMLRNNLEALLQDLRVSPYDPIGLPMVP

[7] = molecular target: Mitogen-activated protein kinase 11 (Homo sapiens, UniProt Q15759)
Mitogen-activated protein kinase 11, sequence (Q15759 whole entry): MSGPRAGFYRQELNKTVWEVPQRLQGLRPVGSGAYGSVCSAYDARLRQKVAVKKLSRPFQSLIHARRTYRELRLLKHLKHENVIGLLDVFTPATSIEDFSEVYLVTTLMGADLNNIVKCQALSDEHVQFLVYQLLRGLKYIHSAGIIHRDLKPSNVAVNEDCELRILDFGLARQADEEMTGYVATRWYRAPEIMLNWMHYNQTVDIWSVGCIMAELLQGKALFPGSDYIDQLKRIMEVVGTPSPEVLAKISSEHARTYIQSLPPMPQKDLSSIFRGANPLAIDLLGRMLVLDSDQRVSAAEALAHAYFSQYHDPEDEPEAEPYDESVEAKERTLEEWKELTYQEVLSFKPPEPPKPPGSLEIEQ

[8] = molecular target: Serine/threonine-protein kinase 38 (Homo sapiens) (UniProt Q15208)
Serine/threonine-protein kinase 38 (Homo sapiens), sequence (Q15208 2-465 limits assumed): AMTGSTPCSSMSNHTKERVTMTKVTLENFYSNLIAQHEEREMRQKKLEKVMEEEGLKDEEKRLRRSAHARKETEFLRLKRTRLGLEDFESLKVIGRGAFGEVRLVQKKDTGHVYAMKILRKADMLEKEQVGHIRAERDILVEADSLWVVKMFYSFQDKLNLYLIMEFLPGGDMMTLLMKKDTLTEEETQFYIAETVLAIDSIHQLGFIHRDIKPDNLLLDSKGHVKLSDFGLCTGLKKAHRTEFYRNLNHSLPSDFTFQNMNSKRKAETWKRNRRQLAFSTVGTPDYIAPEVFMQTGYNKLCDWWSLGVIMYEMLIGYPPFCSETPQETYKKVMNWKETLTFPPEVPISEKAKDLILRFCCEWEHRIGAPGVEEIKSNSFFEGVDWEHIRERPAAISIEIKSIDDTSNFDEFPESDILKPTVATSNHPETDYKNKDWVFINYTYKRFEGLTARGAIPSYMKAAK

[9] = molecular target: T2, Calcium/calmodulin-dependent protein kinase type IV (Homo sapiens) (UniProt Q16566)
T2 sequence (whole entry): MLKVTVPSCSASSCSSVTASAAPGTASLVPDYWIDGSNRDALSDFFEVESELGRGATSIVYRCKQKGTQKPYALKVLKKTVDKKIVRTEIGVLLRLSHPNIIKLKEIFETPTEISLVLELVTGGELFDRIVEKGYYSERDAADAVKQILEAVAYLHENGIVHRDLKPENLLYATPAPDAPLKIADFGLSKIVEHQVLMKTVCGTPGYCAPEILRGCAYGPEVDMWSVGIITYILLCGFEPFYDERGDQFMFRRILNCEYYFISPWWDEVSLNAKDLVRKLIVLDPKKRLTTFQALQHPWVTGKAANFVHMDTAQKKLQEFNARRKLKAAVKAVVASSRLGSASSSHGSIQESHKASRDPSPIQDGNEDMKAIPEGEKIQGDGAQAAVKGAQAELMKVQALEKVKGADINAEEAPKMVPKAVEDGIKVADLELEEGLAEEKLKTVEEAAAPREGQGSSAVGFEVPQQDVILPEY

[10] = molecular target: T3, Serine/threonine-protein kinase PLK4 (Homo sapiens) (UniProt O00444)
T3 sequence (whole entry): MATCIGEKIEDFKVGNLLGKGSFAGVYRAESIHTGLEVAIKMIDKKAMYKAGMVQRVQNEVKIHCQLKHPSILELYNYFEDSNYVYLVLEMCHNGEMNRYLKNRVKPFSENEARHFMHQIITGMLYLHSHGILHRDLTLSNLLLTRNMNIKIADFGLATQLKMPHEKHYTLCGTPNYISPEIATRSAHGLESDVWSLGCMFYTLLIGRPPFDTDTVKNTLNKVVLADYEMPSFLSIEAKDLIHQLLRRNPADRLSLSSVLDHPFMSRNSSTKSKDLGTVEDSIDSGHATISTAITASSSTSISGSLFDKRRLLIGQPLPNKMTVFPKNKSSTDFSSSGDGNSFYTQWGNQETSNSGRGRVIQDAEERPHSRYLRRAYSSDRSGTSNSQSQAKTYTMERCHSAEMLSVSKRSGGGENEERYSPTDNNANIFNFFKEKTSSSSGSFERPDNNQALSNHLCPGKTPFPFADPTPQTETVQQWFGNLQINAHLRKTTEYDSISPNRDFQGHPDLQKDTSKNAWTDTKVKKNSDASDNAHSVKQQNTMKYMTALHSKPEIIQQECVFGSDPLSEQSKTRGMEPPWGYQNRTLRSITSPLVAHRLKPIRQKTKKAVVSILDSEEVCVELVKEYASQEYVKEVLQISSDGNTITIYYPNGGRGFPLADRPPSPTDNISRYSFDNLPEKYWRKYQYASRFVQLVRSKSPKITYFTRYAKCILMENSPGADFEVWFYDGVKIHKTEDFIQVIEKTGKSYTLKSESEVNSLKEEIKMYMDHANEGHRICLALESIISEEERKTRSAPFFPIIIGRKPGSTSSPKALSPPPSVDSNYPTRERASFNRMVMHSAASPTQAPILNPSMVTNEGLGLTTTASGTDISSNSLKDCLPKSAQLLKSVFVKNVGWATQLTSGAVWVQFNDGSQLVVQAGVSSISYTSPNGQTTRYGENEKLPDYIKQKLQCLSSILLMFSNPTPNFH

[11] = molecular target: Serine/threonine-protein kinase pim-2 (Homo sapiens, UniProt Q9P1W9)
Serine/threonine-protein kinase pim-2, sequence (Q9P1W9 whole entry, looked up): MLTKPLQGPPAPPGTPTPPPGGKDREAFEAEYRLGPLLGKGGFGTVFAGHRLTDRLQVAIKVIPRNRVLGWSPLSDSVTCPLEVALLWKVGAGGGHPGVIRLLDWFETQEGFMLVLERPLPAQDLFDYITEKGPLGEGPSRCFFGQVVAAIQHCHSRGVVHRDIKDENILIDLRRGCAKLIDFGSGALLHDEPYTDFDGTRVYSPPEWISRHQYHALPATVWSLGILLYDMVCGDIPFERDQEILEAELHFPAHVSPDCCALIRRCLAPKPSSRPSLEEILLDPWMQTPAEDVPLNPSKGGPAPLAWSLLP

[12] = molecular target: Cyclin-dependent kinase 6 (Homo sapiens) (UniProt Q00534)
Cyclin-dependent kinase 6 (Homo sapiens), sequence (Q00534 whole entry): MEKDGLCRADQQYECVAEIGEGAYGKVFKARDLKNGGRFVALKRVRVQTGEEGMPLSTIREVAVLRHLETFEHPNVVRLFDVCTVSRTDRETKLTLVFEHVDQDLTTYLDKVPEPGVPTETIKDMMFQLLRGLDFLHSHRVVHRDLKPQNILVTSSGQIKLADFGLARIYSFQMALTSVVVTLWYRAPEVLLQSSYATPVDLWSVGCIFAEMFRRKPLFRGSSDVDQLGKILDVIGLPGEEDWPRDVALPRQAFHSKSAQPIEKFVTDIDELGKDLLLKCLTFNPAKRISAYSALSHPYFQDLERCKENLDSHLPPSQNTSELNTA

[13] = molecular target: Cyclin-dependent kinase-like 1 (Homo sapiens) (UniProt Q00532)
Cyclin-dependent kinase-like 1 (Homo sapiens), sequence (Q00532 whole entry): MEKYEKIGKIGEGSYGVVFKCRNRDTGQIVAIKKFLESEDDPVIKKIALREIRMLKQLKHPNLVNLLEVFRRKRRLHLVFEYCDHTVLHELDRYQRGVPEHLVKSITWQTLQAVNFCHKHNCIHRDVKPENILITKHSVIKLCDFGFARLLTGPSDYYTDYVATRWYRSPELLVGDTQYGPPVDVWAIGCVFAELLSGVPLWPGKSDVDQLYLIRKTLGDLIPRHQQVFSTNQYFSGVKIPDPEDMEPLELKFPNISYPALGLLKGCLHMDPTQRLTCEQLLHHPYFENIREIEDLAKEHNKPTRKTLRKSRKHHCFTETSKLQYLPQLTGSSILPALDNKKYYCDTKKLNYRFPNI

[14] = molecular target: Serine/threonine-protein kinase PAK 4 (Homo sapiens) (UniProt O96013)
Serine/threonine-protein kinase PAK 4 (Homo sapiens), sequence (O96013 whole entry, looked up): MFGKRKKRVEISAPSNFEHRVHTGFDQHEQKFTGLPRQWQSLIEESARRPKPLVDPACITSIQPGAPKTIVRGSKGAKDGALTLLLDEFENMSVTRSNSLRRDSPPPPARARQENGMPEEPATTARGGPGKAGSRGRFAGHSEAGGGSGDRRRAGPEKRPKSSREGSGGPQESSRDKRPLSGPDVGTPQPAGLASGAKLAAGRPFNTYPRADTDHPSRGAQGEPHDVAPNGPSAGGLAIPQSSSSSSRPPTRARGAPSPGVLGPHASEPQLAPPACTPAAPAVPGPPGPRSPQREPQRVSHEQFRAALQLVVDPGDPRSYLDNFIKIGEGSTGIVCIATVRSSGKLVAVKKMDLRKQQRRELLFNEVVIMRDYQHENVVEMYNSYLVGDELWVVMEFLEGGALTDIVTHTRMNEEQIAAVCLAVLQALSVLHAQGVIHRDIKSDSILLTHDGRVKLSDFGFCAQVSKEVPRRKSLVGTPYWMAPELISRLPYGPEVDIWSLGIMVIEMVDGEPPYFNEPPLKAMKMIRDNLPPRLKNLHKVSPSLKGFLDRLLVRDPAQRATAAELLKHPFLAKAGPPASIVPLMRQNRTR

[15] = molecular target: Dual specificity protein kinase CLK3 (Homo sapiens) (UniProt P49761)
[16] = molecular target: Dual specificity protein kinase CLK1 (Homo sapiens) (UniProt P49759)
[17] = molecular target: Calcium/calmodulin-dependent protein kinase type II subunit beta (Homo sapiens) (UniProt Q13554)
Calcium/calmodulin-dependent protein kinase type II subunit beta (Homo sapiens), sequence (Q13554 whole entry): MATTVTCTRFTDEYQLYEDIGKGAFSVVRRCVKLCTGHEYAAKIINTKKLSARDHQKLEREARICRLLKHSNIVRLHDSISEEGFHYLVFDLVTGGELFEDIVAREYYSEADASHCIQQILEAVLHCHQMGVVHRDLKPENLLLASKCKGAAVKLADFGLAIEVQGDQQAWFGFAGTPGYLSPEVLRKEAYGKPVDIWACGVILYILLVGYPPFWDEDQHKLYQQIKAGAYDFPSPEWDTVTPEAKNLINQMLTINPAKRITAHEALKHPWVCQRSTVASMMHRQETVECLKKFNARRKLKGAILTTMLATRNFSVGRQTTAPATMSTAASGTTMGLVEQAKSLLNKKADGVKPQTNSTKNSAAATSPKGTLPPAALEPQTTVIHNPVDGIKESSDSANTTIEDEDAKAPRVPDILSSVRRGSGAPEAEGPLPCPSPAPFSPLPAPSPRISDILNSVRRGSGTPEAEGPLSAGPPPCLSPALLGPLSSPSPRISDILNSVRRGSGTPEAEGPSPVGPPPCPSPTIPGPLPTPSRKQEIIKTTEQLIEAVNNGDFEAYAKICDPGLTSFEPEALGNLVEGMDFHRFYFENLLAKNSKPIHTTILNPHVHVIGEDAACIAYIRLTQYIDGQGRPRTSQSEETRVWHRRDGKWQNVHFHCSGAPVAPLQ

[18] = molecular target: Serine/threonine-protein kinase 16 (Homo sapiens) (UniProt O75716)

Mitogen-activated protein kinase 6 (Homo sapiens), sequence (Q16659 whole entry): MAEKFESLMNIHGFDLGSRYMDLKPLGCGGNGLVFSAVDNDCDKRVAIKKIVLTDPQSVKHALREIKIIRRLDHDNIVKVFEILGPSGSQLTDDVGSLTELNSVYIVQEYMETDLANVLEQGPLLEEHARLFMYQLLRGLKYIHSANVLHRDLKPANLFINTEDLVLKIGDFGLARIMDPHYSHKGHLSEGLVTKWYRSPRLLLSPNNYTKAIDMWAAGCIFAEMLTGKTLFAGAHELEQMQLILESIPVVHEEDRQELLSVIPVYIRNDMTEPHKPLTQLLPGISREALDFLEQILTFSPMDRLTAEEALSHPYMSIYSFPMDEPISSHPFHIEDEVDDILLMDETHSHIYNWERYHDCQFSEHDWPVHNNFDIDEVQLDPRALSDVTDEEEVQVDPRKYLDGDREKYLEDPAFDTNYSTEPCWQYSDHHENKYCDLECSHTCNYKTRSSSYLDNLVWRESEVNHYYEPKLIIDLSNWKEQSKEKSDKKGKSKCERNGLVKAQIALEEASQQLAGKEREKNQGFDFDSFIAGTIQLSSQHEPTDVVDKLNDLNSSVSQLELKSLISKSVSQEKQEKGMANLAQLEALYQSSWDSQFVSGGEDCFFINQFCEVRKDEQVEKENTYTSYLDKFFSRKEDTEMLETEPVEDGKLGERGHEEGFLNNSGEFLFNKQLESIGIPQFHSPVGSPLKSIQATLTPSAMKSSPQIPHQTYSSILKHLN
Serine/threonine-protein kinase VRK2 (Homo sapiens), sequence (Q86Y07 whole entry): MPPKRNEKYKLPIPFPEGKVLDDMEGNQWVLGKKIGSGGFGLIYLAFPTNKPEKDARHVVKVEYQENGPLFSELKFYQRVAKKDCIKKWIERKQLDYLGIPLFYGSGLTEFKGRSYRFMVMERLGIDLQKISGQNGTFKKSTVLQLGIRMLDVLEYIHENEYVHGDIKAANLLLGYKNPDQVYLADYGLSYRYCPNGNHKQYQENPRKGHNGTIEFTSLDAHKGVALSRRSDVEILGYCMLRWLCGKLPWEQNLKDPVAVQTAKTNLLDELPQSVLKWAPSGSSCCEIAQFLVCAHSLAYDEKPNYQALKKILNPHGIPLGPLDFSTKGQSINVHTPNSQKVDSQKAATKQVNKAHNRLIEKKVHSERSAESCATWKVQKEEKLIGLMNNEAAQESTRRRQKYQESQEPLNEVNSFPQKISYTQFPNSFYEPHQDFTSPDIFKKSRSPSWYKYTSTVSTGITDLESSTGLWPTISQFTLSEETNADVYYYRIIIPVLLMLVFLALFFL
Serine/threonine-protein kinase 26 (Homo sapiens), sequence (Q9P289 2-416 limits assumed): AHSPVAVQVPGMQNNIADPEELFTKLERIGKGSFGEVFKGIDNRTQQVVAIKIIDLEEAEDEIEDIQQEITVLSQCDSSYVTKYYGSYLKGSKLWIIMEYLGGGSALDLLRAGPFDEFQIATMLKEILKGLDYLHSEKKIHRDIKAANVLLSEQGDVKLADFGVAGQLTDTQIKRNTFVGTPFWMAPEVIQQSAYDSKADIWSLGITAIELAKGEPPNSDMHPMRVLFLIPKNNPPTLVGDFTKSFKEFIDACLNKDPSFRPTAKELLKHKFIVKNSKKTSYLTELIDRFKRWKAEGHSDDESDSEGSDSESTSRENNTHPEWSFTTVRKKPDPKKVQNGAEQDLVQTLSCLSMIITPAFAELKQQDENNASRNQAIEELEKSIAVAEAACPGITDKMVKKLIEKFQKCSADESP

Row | SMILES | ΔTm [1] [°C] | ΔTm [2] [°C] | ΔTm [3] [°C] | ΔTm [4] [°C] | ΔTm [5] [°C] | ΔTm [6] [°C] | ΔTm [7] [°C] | ΔTm [8] [°C] | ΔTm [9] [°C] | ΔTm [10] [°C] | ΔTm [11] [°C] | ΔTm [12] [°C] | ΔTm [13] [°C] | ΔTm [14] [°C] | ΔTm [15] [°C] | ΔTm [16] [°C] | ΔTm [17] [°C] | ΔTm [18] [°C]
1 | O=C(O)c1cc(NCc2cc(O)ccc2O)ccc1O | -0.2 | -0.4 | -1 | 0.3 | 0.9 | 0.1 | 0.2 | -0.4 | 0.1 | 0.1 | 0.7 | -0.3 | -0.4 | 0 | 0.2 | 0.1 | 0 | 0.5
2 | O=C1Cc2c([nH]c3ccc([N+](=O)[O-])cc23)-c2ccccc2N1 | 0.3 | 1.2 | 2.4 | 0.9 | 2.5 | 0 | -0.1 | 1.8 | 0.8 | 6.9 | 1.5 | 1.4 | 0.4 | 2.1 | 1 | 2.2 | 0.3 | 1
3 | O=C1Nc2ccc(I)cc2/C1=C1/Nc2ccccc2/C1=N\O | 4.3 | 0.5 | 2.7 | 1.8 | 4.5 | 0.4 | 1.3 | 2 | 2.6 | 8.7 | -0.5 | 0.8 | 5.4 | 2.3 | 3.5 | 3.2 | 1.2 | 1.9
4 | N#C/C(=C\c1ccc(O)c(O)c1)C(=O)Nc1ccccc1 | 0.3 | 0.5 | 0.8 | 1.2 | 0.3 | 0 | 0.2 | 0 | 0.6 | 1.3 | 1.5 | 0.4 | -0.1 | -0.5 | 0.2 | 1 | 0.2 | 0.1
5 | COC1=C2C[C@@H](C)C[C@H](OC)[C@H](O)[C@@H](C)/C=C(\C)[C@H](OC(N)=O)[C@@H](OC)/C=C\C=C(/C)C(=O)NC(=CC1=O)C2=O | 0.2 | 0.1 | 0.2 | 0.4 | -0.4 | -0.7 | -0.2 | 0.2 | 0 | 0.2 | -0.1 | 0.1 | -0.5 | -0.2 | -0.1 | 0.6 | -0.1 | 0.4
6 | O=C(O)Cc1ccc(O)c([N+](=O)[O-])c1 | 0.3 | 0.8 | -0.1 | 0.5 | -0.4 | -0.3 | 0.8 | 2 | 3.3 | 0.8 | -0.1 | 0.1 | 1.2 | 1.2 | -0.6 | -0.6 | 0.6 | 0.4
7 | Cc1cncc2cccc(S(=O)(=O)N3CCCNC[C@@H]3C)c12 | 1.2 | 0 | 2.4 | 0.2 | 1.5 | 0.4 | -0.1 | 0.6 | 0.3 | 7 | 0.7 | -0.1 | 0.1 | 0.7 | 2.6 | 3 | 1.1 | 1.1
8 | O=C1Nc2cc(Br)ccc2/C1=C1/Nc2ccccc2/C1=N\O | 0.3 | -0.2 | 0.8 | -1.1 | 3.7 | 1.3 | -2.5 | 2.6 | -0.5 | 1.5 | 0.4 | -0.1 | 1.5 | 1.8 | -0.8 | 0 | 0.8 | 7.6
9 | O=c1sn(Cc2ccccc2)c(=S)n1Cc1ccccc1 | 0.3 | 0.5 | 0 | 0.4 | 0.4 | 0.9 | -0.3 | 0.4 | 0.9 | -0.2 | -0.2 | -0.4 | -0.3 | 1.2 | -0.3 | 0.2 | 1 | -0.4
10 | Cc1cc2ncc(-c3ccccc3)nc2cc1C | 0.4 | 1 | 0.2 | 1.1 | -0.5 | 1.1 | -0.3 | 0.5 | 0.4 | 0.1 | 0.4 | 0.4 | -0.3 | 1.1 | 0 | 1.4 | 0.8 | 0.5
11 | COC(=O)[C@]1(O)C[C@@H]2O[C@@]1(C)n1c3ccccc3c3c4c(c5c6ccccc6n2c5c31)C(=O)NC4 (single isomer, unassigned) | -0.2 | 0.3 | 7.3 | 0.2 | 3 | -0.2 | 0.7 | 3.9 | 1.8 | 12.5 | 3.8 | 3.1 | 6.9 | 3.9 | 0.6 | 10.6 | 2.7 | 2.3

Source: ChEMBL document CHEMBL1145498, “A systematic interaction map of validated kinase inhibitors with Ser/Thr kinases” (Proc Natl Acad Sci U S A, 2007)
